“Also recorded” adds a separate entry of the source. Where two headings read alike, the source gives them in different places.
Experiments:
[1] = Solvent swelling of silicone boots; format: physicochemical; conditions: silicone boots placed in solvent for 2 hours; solvent ratios by volume
Experimental: The effect of various solvents to swell (as determined by % weight increase) silicone boots was determined. Silicone boots were weighed, placed in a solvent for 2 hours, and weighed again.
The solvent ratios in Table 1 are by volume. The ability to swell silicone by 30% or more is believed to be suitable for increasing the loading capacity of silicone. The ability to swell silicone by 50% or more is believed to be more suitable for increasing the loading capacity of silicone.

[2] = Loading of minocycline and rifampin into pre-extracted and non-extracted silicone boots; format: physicochemical; conditions: for drug concentration in polymer: loading 1 hour in butyl acetate:methanol 85:15
Experimental: Molded, cured silicone (Dow-Q7 4850) boots designed to fit snuggly around Restore® implantable neurostimulators (Medtroinc, Inc.) were placed in a concentrated drug loading solution containing rifampin (30 mg/ml) and minocycline (15 mg/ml) in butyl acetate:methanol (85:15, by volume). The polymer was allowed to swell in this solution for one hour, rinsed and then dried overnight.
The efficiency of various solvents to extract material from cured silicone was tracked by determining the weight loss post-extraction. […] It was initially assumed that subjecting the polymer to drug loading should fulfill the same function as pre-extracting the material prior to drug loading.
One thought was that the existence of extractables in the loading solution might increase the solubility of the drugs in solution compared to solubility in the silicone, thus lowering the partitioning of drug into the silicone. Eight non-extracted silicone boots and 10 pre-extracted boots were drug loaded in separate loading solutions. Two additional pre-extracted silicone boots were then loaded in the formulation used to load the non-extracted boots. According to the hypothesis, the loading solution used for the non-extracted boots would theoretically contain higher levels of silicone extractables, and result in lower loading of the pre-extracted boots.

[3] = for increase in drug loading, pre-extracted relative to non-extracted silicone discs: 2 hour plus 24 hour extracted; for average drug loaded into silicone discs: 24 hr loading, HPLC of 25 mL extract
Experimental: One sheet was removed after 2 hours; the other was removed after 24. The sheets were allowed to dry for 24 hours.
Nine 1¼ inch discs were punched from each sheet of silicone. The discs (27) were separated into 9 jars (3 per jar). Each jar contained a drug loading solution. Three jars contained clonidine, three contained dexamethasone and three contained sulindac.
After stirring 24 hrs in solution, all the samples were removed, rinsed twice for approximately 10 seconds in a sufficient volume of methanol and allowed to dry overnight in open air on a drying rack. The samples were then stored until extraction in jars in a nitrogen purged foil bag.
Each sample was cut in half, and the half sample was weighed. Initially only the clonidine and sulindac samples were analyzed.
All samples were extracted in THF/ethanol 4:1 (15 mL) for 30 min; then re-extracted in THF/ethanol 4:1 (10 mL) for 20 min. The first and second extracts were combined in a volumetric flask and any additional volume was added to make exactly 25 mL of solution. These samples were stored in at 4° C. until analysis.
HPLC Analysis was performed using an Agilent 1100 stack. For dexamethasone, isocratic separation using acetonytrile:water (45:55) was performed. A Zorbax SB-Phenyl, 5 μm, 4.6×150 mm, column (Agilent Technologies, Inc.) was used at a column temperature of 30° C. The flow rate was 10 mL/min, with a run time of 15 minutes. Dexamethasone was detected by UV at 245 nm.
For sulindac, isocratic separation using 0.1% phosphoric acid in acetonitrile:water (38:62) was performed. A PRONTOSIL 120-5-C18-ace-EPS, 5 μm, 4.6×150 mm, column was used at a column temperature of 37° C. The autosampler temperature was 15° C. The flow rate was 1.0 mL/min, with a run time of 35 min. Sulindac was detected by UV at 285 nm. Injection volumes were 10-50 μL.
The autosample temperature was ambient temperature. Isocratic separation using a mobile phase A (MPA):mobile phase B (MPB) ratio of 52:48 was employed. MPA consisted of 2.2 gm 1-octanesulfonic acid, sodium salt for each liter of nanopure water. MPB was HPLC Grade Methanol. The flow rate was 1 mL/min, with a run time of 15 minutes. […] The injection volume was 10 μL

[4] = Solubility of drug in the loading solution; format: physicochemical; conditions: methanol/butyl acetate loading solution, extra 5 mL methanol added
[5] = not pre-extracted with butyl acetate
[6] = pre-extracted with butyl acetate for 2 hours
[7] = pre-extracted with butyl acetate for 24 hours

SMILES: CC(C)O [Isopropyl alcohol]
- % Weight Increase [1]: 13%

SMILES: C1CCCC1 [Cyclopentane]
- % Weight Increase [1]: 62%

SMILES: Cc1ccccc1 [Toluene]
- % Weight Increase [1]: 85%

SMILES: CCOC(C)=O [Ethyl acetate]
- % Weight Increase [1]: 54%

SMILES: ClC(Cl)Cl [Chloroform]
- % Weight Increase [1]: 166%

SMILES: C1CCOC1 [THF]
- % Weight Increase [1]: 105%

SMILES: CCCCOC(C)=O [Butyl Acetate]
- % Weight Increase [1]: 73%

SMILES: CC(C)=O [Acetone]
- % Weight Increase [1]: 15%

SMILES: CO[C@H]1/C=C/O[C@@]2(C)Oc3c(C)c(O)c4c(O)c(c(/C=N/N5CCN(C)CC5)c(O)c4c3C2=O)NC(=O)/C(C)=C\C=C\[C@H](C)[C@H](O)[C@@H](C)[C@@H](O)[C@@H](C)[C@H](OC(C)=O)[C@@H]1C [rifampin]
- drug concentration in polymer ([2]; non-extracted silicone boots): 2.61 mg/g
- drug concentration in polymer ([2]; silicone boots pre-extracted with butyl acetate): 3.28 mg/g
- increase in drug concentration, pre-extracted vs non-extracted ([2]; silicone boots, same lot): 25.7%

SMILES: CC1=C(CC(=O)O)c2cc(F)ccc2/C1=C\c1ccc([S+](C)[O-])cc1 (stereo not drawn) [sulindac]
- increase in drug loading, pre-extracted relative to non-extracted silicone discs [3]: ~19%
- average drug loaded into silicone discs [3, 5]: 1.56 ± 0.03 µg/mL
- average drug loaded into silicone discs [3, 6]: 1.86 ± 0.06 µg/mL
- average drug loaded into silicone discs [3, 7]: 1.88 ± 0.11 µg/mL

SMILES: C1CCCCC1 [Cyclohexane]
- % Weight Increase [1]: 85%

SMILES: Clc1cccc(Cl)c1N=C1NCCN1 [clonidine]
- increase in drug loading, pre-extracted relative to non-extracted silicone discs [3]: ~6%
- average drug loaded into silicone discs [3, 5]: 19.41 ± 0.20 µg/mL
- average drug loaded into silicone discs [3, 6]: 20.59 ± 0.20 µg/mL
- average drug loaded into silicone discs [3, 7]: 20.49 ± 0.22 µg/mL

SMILES: C[C@@H]1C[C@H]2[C@@H]3CCC4=CC(=O)C=C[C@]4(C)[C@@]3(F)[C@@H](O)C[C@]2(C)[C@@]1(O)C(=O)CO [dexamethasone]
- solubility in loading solution [4]: substantial insolubility; also recorded: did not seem to dissolve well
